pIC50: −log10 of the molar value.
Key:
[1] = molecular target: Cyclin-dependent kinase 19 (Homo sapiens) (UniProt Q9BWU1); experiment: Binding affinity to wild-type human partial length CDK11 (M1 to N360 residues) expressed in bacterial expression system assessed as residual binding level at 10 uM by Kinomescan method relative to control
[2] = molecular target: Homeodomain-interacting protein kinase 1 (Homo sapiens) (UniProt Q86Z02); experiment: Binding affinity to wild-type human partial length HIPK1 (M146 to I555 residues) expressed in mammalian expression system assessed as residual binding level at 10 uM by Kinomescan method relative to control
[3] = molecular target: Cyclin-dependent kinase-like 5 (Homo sapiens) (UniProt O76039); experiment: Binding affinity to wild-type human partial length CDKL5 (M1 to S337 residues) expressed in mammalian expression system assessed as residual binding level at 10 uM by Kinomescan method relative to control
[4] = molecular target: Leucine-rich repeat serine/threonine-protein kinase 2 (Homo sapiens) (UniProt Q5S007); experiment: Binding affinity to wild-type human partial length LRRK2 (H970 to E2527 residues) expressed in mammalian expression system assessed as residual binding level at 10 uM by Kinomescan method relative to control
[5] = molecular target: Serine/threonine-protein kinase D1 (Homo sapiens) (UniProt Q15139); experiment: Binding affinity to wild-type human partial length PRKD1 (G551 to E870 residues) expressed in bacterial expression system assessed as residual binding level at 10 uM by Kinomescan method relative to control
HaCaT = experiment: Cytotoxicity against human HaCaT cells assessed as growth inhibition incubated for 48 hrs by Hoechst 33342 staining based assay; format: cell-based
[6] = molecular target: BMP-2-inducible protein kinase (Homo sapiens) (UniProt Q9NSY1); experiment: Binding affinity to wild-type human partial length BIKE (S34 to N329 residues) expressed in bacterial expression system assessed as residual binding level at 10 uM by Kinomescan method relative to control
[7] = molecular target: Rho-associated protein kinase 2 (Homo sapiens) (UniProt O75116); experiment: Binding affinity to wild-type human partial length ROCK2 (M1 to T431 residues) expressed in mammalian expression system assessed as residual binding level at 10 uM by Kinomescan method relative to control
[8] = molecular target: Hepatocyte growth factor receptor (Homo sapiens) (UniProt P08581); experiment: Binding affinity to wild-type human partial length MET (D1010 to S1367 residues) expressed in bacterial expression system assessed as residual binding level at 10 uM by Kinomescan method relative to control
[9] = molecular target: Casein kinase I isoform gamma-2 (Homo sapiens) (UniProt P78368); experiment: Binding affinity to wild-type human full length CSNK1G2 (M1 to K415 residues) expressed in bacterial expression system assessed as residual binding level at 10 uM by Kinomescan method relative to control
[10] = molecular target: Cyclin-dependent kinase 14 (Homo sapiens) (UniProt O94921); experiment: Binding affinity to wild-type human full length PFTK1 (M1 to H451 residues) expressed in bacterial expression system assessed as residual binding level at 10 uM by Kinomescan method relative to control
[11] = molecular target: Ephrin type-B receptor 2 (Homo sapiens) (UniProt P29323); experiment: Binding affinity to wild-type human partial length EPHB2 (I597 to L902 residues) expressed in bacterial expression system assessed as residual binding level at 10 uM by Kinomescan method relative to control
[12] = molecular target: Cyclin-dependent kinase-like 3 (Homo sapiens) (UniProt Q8IVW4); experiment: Binding affinity to wild-type human partial length CDKL3 (M1 to D327 residues) expressed in bacterial expression system assessed as residual binding level at 10 uM by Kinomescan method relative to control
[13] = molecular target: Muscle, skeletal receptor tyrosine-protein kinase (Homo sapiens) (UniProt O15146); experiment: Binding affinity to wild-type human partial length MUSK (M553 to V869 residues) expressed in bacterial expression system assessed as residual binding level at 10 uM by Kinomescan method relative to control
[14] = molecular target: Serine/threonine-protein kinase/endoribonuclease IRE1 (Homo sapiens) (UniProt O75460); experiment: Binding affinity to wild-type human partial length ERN1 (S551 to E852 residues) expressed in mammalian expression system assessed as residual binding level at 10 uM by Kinomescan method relative to control
[15] = molecular target: Protein-tyrosine kinase 2-beta (Homo sapiens) (UniProt Q14289); experiment: Binding affinity to wild-type human full length PYK2 (M1 to E967 residues) expressed in bacterial expression system assessed as residual binding level at 10 uM by Kinomescan method relative to control
[16] = molecular target: Serine/threonine-protein kinase pim-3 (Homo sapiens) (UniProt Q86V86); experiment: Binding affinity to wild-type human partial length PIM3 (G16 to A317 residues) expressed in bacterial expression system assessed as residual binding level at 10 uM by Kinomescan method relative to control
[17] = molecular target: Mitogen-activated protein kinase kinase kinase 19 (Homo sapiens) (UniProt Q56UN5); experiment: Binding affinity to wild-type human partial length YSK4 (T1019 to H1328 residues) expressed in mammalian expression system assessed as residual binding level at 10 uM by Kinomescan method relative to control
[18] = molecular target: Rho-associated protein kinase 1 (Homo sapiens) (UniProt Q13464); experiment: Binding affinity to wild-type human partial length ROCK1 (M1 to R415 residues) expressed in mammalian expression system assessed as residual binding level at 10 uM by Kinomescan method relative to control
[19] = molecular target: Calcium/calmodulin-dependent protein kinase type IV (Homo sapiens) (UniProt Q16566); experiment: Binding affinity to wild-type human partial length CAMK4 (A22 to A322 residues) expressed in bacterial expression system assessed as residual binding level at 10 uM by Kinomescan method relative to control
[20] = tested on: Mast/stem cell growth factor receptor Kit (Homo sapiens), P10721 [A829P]; experiment: Binding affinity to human partial length KIT A829P mutant (I571 to D952 residues) expressed in mammalian expression system assessed as residual binding level at 10 uM by Kinomescan method relative to control
[21] = molecular target: Serine/threonine-protein kinase PLK4 (Homo sapiens) (UniProt O00444); experiment: Binding affinity to wild-type human partial length PLK4 (M1 to S273 residues) expressed in mammalian expression system assessed as residual binding level at 10 uM by Kinomescan method relative to control
[22] = molecular target: NUAK family SNF1-like kinase 2 (Homo sapiens) (UniProt Q9H093); experiment: Binding affinity to wild-type human partial length SNARK (P22 to A333 residues) expressed in mammalian expression system assessed as residual binding level at 10 uM by Kinomescan method relative to control
[23] = molecular target: Serine/threonine-protein kinase 24 (Homo sapiens) (UniProt Q9Y6E0); experiment: Binding affinity to wild-type human partial length MST3 (A30 to S311 residues) expressed in bacterial expression system assessed as residual binding level at 10 uM by Kinomescan method relative to control
[24] = molecular target: Non-receptor tyrosine-protein kinase TYK2 (Homo sapiens) (UniProt P29597); experiment: Binding affinity to wild-type human partial length TYK2 JH2 pseudokinase domain (G556 to D888 residues) expressed in mammalian expression system assessed as residual binding level at 10 uM by Kinomescan method relative to control

Sequence of Leucine-rich repeat serine/threonine-protein kinase 2 (Homo sapiens) (Q5S007 whole entry, the tested form may be a part): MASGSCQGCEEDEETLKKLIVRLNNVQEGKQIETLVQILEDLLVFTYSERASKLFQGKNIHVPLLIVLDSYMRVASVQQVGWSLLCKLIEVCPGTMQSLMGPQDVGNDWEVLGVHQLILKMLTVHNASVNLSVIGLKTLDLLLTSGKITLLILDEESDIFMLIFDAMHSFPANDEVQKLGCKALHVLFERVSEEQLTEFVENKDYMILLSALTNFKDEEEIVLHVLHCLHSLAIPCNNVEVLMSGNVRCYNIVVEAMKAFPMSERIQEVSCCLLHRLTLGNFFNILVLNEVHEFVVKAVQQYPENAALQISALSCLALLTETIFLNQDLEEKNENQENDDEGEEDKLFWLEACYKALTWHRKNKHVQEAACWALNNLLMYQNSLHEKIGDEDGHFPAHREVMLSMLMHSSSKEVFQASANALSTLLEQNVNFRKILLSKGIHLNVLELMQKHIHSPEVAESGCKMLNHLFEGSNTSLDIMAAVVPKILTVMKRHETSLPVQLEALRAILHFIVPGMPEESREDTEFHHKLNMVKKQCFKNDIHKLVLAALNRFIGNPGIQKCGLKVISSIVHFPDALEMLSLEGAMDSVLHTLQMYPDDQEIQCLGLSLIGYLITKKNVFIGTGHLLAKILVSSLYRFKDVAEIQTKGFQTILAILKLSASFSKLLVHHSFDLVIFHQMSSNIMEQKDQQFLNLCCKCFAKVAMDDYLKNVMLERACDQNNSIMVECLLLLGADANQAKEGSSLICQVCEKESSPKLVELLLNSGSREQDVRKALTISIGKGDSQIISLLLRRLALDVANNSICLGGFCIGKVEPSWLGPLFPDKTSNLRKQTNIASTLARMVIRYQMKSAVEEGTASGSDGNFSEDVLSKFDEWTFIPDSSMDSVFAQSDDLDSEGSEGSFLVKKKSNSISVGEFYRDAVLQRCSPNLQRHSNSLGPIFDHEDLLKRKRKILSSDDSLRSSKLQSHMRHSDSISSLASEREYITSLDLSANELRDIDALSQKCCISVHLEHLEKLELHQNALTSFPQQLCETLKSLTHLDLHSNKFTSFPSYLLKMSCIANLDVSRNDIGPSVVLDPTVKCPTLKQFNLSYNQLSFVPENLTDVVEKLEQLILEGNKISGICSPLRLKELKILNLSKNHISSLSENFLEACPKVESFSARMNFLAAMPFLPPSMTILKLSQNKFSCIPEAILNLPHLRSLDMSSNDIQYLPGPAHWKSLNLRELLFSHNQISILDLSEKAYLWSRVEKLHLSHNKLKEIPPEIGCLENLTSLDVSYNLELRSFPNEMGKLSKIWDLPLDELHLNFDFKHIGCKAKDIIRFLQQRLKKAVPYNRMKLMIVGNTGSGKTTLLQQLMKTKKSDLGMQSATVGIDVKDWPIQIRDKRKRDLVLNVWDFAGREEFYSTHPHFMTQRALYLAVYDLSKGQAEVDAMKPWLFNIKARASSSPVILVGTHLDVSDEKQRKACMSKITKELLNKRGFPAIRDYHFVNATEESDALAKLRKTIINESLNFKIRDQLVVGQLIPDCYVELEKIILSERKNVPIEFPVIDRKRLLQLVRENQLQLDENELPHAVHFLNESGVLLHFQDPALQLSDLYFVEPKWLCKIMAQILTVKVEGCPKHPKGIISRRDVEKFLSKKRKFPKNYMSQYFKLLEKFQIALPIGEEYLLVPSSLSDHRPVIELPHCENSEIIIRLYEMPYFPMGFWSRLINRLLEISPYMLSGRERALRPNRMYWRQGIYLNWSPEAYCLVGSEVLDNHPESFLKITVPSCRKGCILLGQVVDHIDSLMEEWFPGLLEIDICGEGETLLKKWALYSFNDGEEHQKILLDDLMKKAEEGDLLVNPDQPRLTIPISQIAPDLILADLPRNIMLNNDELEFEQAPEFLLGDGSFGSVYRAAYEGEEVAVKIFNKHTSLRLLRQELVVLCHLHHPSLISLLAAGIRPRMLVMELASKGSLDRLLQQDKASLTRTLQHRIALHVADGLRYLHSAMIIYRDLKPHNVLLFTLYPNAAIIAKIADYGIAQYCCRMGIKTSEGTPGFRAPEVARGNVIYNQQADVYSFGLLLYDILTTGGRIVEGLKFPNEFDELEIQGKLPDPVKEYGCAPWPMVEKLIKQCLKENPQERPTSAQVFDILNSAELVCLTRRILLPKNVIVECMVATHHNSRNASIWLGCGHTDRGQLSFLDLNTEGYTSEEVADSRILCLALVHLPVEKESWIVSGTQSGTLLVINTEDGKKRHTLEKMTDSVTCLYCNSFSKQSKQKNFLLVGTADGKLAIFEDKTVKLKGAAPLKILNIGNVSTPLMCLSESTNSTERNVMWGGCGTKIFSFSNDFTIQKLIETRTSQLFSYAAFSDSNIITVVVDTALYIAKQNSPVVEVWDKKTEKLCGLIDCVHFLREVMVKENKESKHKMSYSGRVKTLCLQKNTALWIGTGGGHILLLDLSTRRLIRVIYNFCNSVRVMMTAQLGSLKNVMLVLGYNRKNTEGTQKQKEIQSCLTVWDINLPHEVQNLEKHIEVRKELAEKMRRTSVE
Sequence of Rho-associated protein kinase 2 (Homo sapiens) (O75116 whole entry, looked up, the tested form may be a part): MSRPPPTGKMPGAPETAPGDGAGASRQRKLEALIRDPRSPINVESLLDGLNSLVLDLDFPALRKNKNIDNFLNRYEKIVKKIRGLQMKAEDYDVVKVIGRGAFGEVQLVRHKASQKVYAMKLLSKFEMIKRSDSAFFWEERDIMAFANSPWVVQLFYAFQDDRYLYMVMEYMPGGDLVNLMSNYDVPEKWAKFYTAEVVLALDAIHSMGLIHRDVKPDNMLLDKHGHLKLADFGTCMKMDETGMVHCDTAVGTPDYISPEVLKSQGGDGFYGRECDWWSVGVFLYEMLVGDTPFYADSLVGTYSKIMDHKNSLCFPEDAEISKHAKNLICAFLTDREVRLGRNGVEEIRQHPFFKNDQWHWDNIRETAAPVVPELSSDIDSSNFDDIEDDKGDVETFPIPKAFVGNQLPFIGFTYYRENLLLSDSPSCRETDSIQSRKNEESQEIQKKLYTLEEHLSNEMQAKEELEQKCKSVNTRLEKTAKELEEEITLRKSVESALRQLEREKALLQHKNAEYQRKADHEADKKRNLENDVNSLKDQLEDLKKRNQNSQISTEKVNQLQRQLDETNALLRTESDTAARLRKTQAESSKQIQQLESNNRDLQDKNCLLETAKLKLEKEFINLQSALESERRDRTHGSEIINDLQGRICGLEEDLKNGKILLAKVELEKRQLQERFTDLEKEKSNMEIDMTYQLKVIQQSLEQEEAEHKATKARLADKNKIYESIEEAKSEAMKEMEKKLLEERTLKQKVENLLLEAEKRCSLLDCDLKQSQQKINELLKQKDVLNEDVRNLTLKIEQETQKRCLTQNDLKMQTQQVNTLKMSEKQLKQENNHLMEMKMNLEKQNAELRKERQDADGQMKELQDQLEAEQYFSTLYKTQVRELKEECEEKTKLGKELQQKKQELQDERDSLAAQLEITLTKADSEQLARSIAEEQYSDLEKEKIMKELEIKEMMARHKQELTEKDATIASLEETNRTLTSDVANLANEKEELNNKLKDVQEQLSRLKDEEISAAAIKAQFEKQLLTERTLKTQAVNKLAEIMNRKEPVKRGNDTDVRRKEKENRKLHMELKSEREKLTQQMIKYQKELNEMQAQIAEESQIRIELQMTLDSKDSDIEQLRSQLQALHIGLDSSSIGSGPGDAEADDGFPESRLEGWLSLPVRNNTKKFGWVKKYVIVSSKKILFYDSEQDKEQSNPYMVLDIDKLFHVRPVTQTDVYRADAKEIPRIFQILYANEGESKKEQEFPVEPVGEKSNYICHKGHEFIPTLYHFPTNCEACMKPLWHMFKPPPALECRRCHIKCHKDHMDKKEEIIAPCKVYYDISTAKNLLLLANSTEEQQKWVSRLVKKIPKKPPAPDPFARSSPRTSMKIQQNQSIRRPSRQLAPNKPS
Sequence of Cyclin-dependent kinase-like 3 (Homo sapiens) (Q8IVW4 whole entry, looked up, the tested form may be a part): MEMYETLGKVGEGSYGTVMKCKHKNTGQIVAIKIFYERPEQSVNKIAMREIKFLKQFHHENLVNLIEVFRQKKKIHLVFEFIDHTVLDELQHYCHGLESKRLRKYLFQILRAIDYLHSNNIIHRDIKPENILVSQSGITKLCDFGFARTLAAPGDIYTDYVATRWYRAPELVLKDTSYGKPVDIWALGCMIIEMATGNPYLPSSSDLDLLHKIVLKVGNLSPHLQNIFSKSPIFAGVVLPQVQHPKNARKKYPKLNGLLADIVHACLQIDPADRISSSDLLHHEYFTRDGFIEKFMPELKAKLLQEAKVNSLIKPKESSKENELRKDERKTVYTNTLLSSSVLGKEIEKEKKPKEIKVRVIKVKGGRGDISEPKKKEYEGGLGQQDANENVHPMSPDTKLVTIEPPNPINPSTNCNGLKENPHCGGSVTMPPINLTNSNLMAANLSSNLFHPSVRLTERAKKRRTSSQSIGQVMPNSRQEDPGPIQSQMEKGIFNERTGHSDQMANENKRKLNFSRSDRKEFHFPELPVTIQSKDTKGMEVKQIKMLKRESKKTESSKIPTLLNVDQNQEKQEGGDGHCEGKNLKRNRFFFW
Sequence of Casein kinase I isoform gamma-2 (Homo sapiens) (P78368 whole entry, looked up, the tested form may be a part, canonical isoform): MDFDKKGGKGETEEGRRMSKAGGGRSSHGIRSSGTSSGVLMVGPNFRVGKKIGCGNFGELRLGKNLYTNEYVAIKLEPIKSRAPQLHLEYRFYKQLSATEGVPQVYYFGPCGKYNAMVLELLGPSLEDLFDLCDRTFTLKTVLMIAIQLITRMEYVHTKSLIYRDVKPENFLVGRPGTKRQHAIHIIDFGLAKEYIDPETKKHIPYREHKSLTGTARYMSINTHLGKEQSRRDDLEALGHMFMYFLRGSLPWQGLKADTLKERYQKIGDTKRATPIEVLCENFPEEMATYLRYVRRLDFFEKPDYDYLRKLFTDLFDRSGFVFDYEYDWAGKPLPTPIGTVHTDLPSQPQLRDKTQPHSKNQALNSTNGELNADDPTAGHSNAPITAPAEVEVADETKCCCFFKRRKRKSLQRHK

For `O=C(Nc1cc(-c2cn(CCNc3c4c(nc5ccccc35)CCCC4)nn2)ccn1)Nc1cccc2c1C1CCCCN1C2=O` (racemic), which Activity [1] is on record?
Its Activity is 94%.

And the Activity [2]?
Its Activity is 43%.

What about the Activity [3] of the same molecule?
Its Activity is 0.35%.

And the Activity [4]?
Its Activity is 38%.

And the Activity [5]?
The Activity was 24%.

And the pIC50 (HaCaT)?
The pIC50 was 5.30.

What about the Activity [6] of the same molecule?
Its Activity is 2.3%.

And the Activity [7]?
The Activity was 26%.

And the Activity [8]?
Its Activity is 57%.

And the Activity [9]?
Its Activity is 68%.

And the Activity [10]?
Its Activity is 28%.

What about the Activity [11] of the same molecule?
Its Activity is 61%.

And the Activity [12]?
The Activity was 0%.

What about the Activity [13] of the same molecule?
Its Activity is 49%.

What about the Activity [14] of the same molecule?
The Activity was 87%.

What about the Activity [15] of the same molecule?
Its Activity is 74%.

And the Activity [16]?
Its Activity is 24%.

And the Activity [17]?
Its Activity is 8.5%.

What about the Activity [18] of the same molecule?
Its Activity is 36%.

And the Activity [19]?
The Activity was 100%.

And the Activity [20]?
The Activity was 3.9%.

And the Activity [21]?
The Activity was 100%.

And the Activity [22]?
The Activity was 1.9%.

And the Activity [23]?
The Activity was 59%.

And the Activity [24]?
The Activity was 19%.

Reference: ChEMBL document CHEMBL4390652, “Design, biological evaluation and X-ray crystallography of nanomolar multifunctional ligands targeting simultaneously acetylcholinesterase and glycogen synthase kinase-3” (Eur J Med Chem, 2019)
